From patent EP0361645B1, “Organic hydrazine derivatives for pharmaceutical use” (ROHM AND HAAS COMPANY, priority 1988, dated 1990)
Like-named read-outs stand apart in the source and are kept apart here.

Target: T1, ecdysone receptor (Drosophila melanogaster, UniProt P34021)
T1 construct: endogenous in cells; host or cells: Drosophila Kr (Kc) cells, undiluted cytosolic extract
T1 sequence (P34021 1-878): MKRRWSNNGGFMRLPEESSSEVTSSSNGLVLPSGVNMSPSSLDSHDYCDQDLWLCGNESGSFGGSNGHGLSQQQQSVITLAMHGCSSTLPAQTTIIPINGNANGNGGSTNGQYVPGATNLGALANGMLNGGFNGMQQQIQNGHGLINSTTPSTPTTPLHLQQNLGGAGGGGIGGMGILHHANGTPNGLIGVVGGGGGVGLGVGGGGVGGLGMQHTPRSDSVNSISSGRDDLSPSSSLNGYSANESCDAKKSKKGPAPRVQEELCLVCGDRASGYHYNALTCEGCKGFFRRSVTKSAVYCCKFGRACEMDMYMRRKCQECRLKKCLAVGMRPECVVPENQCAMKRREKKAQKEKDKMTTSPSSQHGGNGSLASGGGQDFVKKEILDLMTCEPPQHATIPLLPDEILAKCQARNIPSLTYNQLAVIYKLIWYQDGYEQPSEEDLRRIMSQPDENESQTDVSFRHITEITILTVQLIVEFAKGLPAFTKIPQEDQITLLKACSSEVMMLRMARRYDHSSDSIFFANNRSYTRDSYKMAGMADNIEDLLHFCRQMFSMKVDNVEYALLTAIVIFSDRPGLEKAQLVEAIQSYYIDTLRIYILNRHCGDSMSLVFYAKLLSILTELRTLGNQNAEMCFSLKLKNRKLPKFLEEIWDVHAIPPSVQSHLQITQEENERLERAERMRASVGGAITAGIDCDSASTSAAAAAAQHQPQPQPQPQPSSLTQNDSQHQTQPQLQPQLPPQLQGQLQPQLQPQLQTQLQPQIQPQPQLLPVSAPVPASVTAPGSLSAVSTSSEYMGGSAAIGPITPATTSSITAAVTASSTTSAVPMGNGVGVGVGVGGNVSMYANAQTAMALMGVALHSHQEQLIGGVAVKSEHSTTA
T1 sequence (P20153 1-508 partner): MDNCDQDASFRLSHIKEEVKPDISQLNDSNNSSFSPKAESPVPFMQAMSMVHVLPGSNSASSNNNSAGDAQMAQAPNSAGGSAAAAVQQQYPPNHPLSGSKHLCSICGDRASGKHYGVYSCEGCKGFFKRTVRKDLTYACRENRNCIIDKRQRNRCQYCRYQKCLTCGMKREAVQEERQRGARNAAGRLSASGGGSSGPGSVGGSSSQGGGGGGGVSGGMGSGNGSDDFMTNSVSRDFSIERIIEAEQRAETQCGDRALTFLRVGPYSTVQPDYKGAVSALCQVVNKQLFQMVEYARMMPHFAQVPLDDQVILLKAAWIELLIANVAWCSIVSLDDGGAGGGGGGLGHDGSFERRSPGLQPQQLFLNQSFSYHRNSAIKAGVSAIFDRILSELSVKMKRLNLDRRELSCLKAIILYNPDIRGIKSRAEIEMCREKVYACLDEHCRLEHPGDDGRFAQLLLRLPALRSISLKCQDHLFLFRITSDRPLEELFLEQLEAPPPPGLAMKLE
Test: ^3H-ponasterone A binding to / displacement from Kr cell cytosolic receptor extracts
Description: The invention will now be further described by way of exemplification and by reference to the drawings in which; • Figure 1. Both 20-hydroxyecdysone and Example No. 3 induce process elaboration (A) and inhibition of cell proliferation (B) in Kr cells in a dose-dependent manner. Initial cell density was 2 X 10^6 cells/ml; after incubation of 1 ml aliquots of the cells with the compound for 48 hours the cells were triturated gently and the percentage of cells responding (with processes longer than approximately 17 um, see Cherbas et al. 189 Wilhelm Roux's Arch. 1 (1980)) and total cell density was determined by hemocytom- eter counting, relative to ethanol (1 ul)-treated controls. Determinations were in triplicate for each dose. […] Induction of acetylcholinesterase by varying concentrations of 20-hydroxyecdysone and Example No. 3. Kr cells at an initial density of 3 X 10^6 cells/ml (10 ml per sample) were incubated with the agonist for three days. After harvesting, by centrifugation at 3000 X g, the cell pellets were washed with Robb's Drosophila saline (18, 2 X 5 ml) at 4 ° C, then lysed by sonication in 1 ml of phosphate buffer (pH 7.4, I = 0.1 M) containing 0.5 M NaCI, 0.25 M EDTA and 0.5% TRITON? X-100. See Cherbas, 197 Science 275 (1977). Triton is a registered trademark of Rohm and Haas Company for a alkylaryl polyoxyethylene glycol surfactant. After centrifugation at 16,000 X g, the supernatants were assayed for acetylcholinesterase activity by an adaptation of the method of Ellman et al., 7 Biochem. Pharmacol. 88 (1961), by subtracting out any 412 nm absorbance observed in incubations in the presence of 2 X 10-5 eserine sulfate. Thus reaction mixtures contained 50 ul of enzyme extract, 20 ul eserine (blank tubes only) and 1.0 ml of 0.5 mM acetylthiocholine, 0.3 mM dithiobisnitrobenzoic acid in phosphate buffer (pH 7.4, I = 0.1 M). Incubations were at 25 ° C for two hours; reactions in active tubes were terminated by addition of eserine. Absorbance at 412 nm was then measured. Protein concentration in extracts was measured by the Biorad method. […] Scatchard plot of ^3H-ponasterone A binding to Kr cell cytosolic receptor extracts in the presence of differing concentrations of Example No. 3. Cytosolic extract preparation and ecdysteroid receptor assays were essentially as described in Sage, 111 Meth. in Enzymol. 458 (1985). Example No. 3 was added in 1 ul DMSO to 50 ul of radioligand in 10 mM Tris buffer (pH 7.2) and 50 ul of undiluted cytosol extract. After incubation overnight at 0.5 ° C, bound label was separated from free by addition of 300 ul 1% HCI-washed charcoal (Sigma) and 0.1% Dextran T70 (Pharmacia) in Tris buffer, centrifugation (13,000 X g, 3 min, 4 ° C) and liquid scintillation counting of a 300 ul aliquot of the supernatant in 15 ml Hydrofluor (National Diagnostics). Points are means of duplicate determinations. […] Relative ability of 20 hydroxyecdysone and Example No. 3 to displace ^3H-ponasterone A from cytosolic receptor extracts. Conditions were as in Figure 3 except that only 0.5 nM ponasterone A was used. • Points are means of duplicate determinations. For 20-hydroxyecdysone EC50 = 0.1 uM while for Example No. 3 EC50 = 3.0 uM. Control binding = 10 femtomoles ^3H-ponasterone A bound per mg cytosol protein. • Figure 4. Effects of 10 ppm Example No. 3 administered in artificial diet to newly ecdysed fourth instar (L4) M. sexta, monitoring (A)immunoreactive hemolymph ecdysteroid titers and (B)weight gain. Ecdysteroid titers were measured by a radioimmunoassay adapted from Warren et al., 40 Experientia 393 (1984) with Protein A-Staph. aureus suspension (Sigma) used as the reagent to separate bound from free ligand. The antiecdysone antiserum was formed by reaction of 20-hydroxyecdysone with carboxymethox- yamine resulting in the corresponding ecdysteroid 6-oxime acid. […] All samples were diluted appropriately in borate buffer pH 8.0 and assayed in duplicate. […]

Row | SMILES | IC50 (0.5 nM ponasterone A (Figure 3B legend), read-out: EC50, displacement of ^3H-ponasterone A from cytosolic receptor extracts) [nM] | fold greater apparent affinity than Example No. 3 (ratio of IC50) [fold] | IC50 [nM] | mode of inhibition of ^3H-ponasterone A binding (Kd increases, Bmax remains the same) | fold lower apparent binding affinity than 20-hydroxyecdysone (Kr cell extracts) [fold]
1 | CC(C)(O)CC[C@@H](O)[C@](C)(O)[C@H]1CC[C@@]2(O)C3=CC(=O)[C@@H]4C[C@@H](O)[C@@H](O)C[C@]4(C)[C@H]3CC[C@]12C [20-hydroxyecdysone, reference compound] | 100 | 30 |  |  | 
2 | CC(C)(C)N(NC(=O)c1ccccc1)C(=O)c1ccccc1 [Example No. 3, N'-t-butyl-N,N'-dibenzoylhydrazine] |  |  | 3000 | competitive mode of inhibition | 30
